In the test the target is T1, KIAA1363 (Mus musculus, UniProt Q8BLF1).
T1 construct: ABPP analysis of KIAA1363 activity in mouse brain membrane proteome; from tissue; host or cells: mouse brain (membrane fraction)
T1 sequence (Q8BLF1 1-408): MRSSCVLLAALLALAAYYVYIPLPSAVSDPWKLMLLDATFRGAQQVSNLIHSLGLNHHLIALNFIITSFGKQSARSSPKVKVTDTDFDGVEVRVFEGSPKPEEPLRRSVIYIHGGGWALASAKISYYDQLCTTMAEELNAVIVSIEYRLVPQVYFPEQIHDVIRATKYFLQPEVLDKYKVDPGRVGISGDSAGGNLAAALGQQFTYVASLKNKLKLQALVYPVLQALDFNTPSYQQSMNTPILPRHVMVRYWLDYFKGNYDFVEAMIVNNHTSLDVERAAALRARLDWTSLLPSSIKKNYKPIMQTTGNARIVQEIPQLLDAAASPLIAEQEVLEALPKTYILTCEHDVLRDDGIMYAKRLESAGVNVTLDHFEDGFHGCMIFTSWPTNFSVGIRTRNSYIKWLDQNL
Nature of the test: Gel-based competitive ABPP of KIAA1363 in mouse brain membrane proteome (FP-rhodamine). The class given is biochemical. The method, then: In various embodiments, the invention provides a method of inhibiting a serine hydrolase, comprising contacting the hydrolase with a compound of formula (I), e.g., a compound selected from set of compounds shown in Table 1, below. […] IC50 values were derived from ABPP analysis of KIAA1363 activity in mouse brain membrane proteome and are averages of three replicates. Inhibitors were added to the proteome for 30 min before addition of FP-rhodamine (1 μM, 30 min).
Tissues were Dounce-homogenized in PBS, pH 7.4, followed by a low-speed spin (1,400 g, 5 min) to remove debris. The supernatant was then subjected to centrifugation (100,000×g, 45 min) to provide the cytosolic fraction in the supernatant and the unsoluble fraction as a pellet. The pellet was washed and resuspended in PBS buffer by sonication. Total protein concentration in each fraction was determined using a protein assay kit (Bio-Rad). Samples were stored at −80° C. until use.
For ABPP experiments, cell lysate and tissue proteomes were treated with 1 μM FP-rhodamine for 30 min at room temperature (50 μL total reaction volume) as described previously (Nomura et al., 2010). Reactions were quenched with one volume of standard 4×SDS/PAGE loading buffer (reducing), separated by SDS/PAGE (10% acrylamide), and visualized in-gel with a Hitachi FMBio IIe flatbed fluorescence scanner (MiraiBio). Inhibitors were preincubated prior (30 min or 4 h at 37° C. in vitro or in situ, respectively) to the addition of FP-rhodamine.

[1] abbreviates: mouse brain membrane proteome, inhibitor 30 min before FP-rhodamine (1 μM, 30 min), averages of three replicates, read-out: IC50 (KIAA1363).
Where [2] appears, read: screened against KIAA1363, Table 1, read-out: IC50 values of around 10 nanomolar (most potent).
Where [3] appears, read: screened against KIAA1363, Table 1, read-out: IC50 values of less than 1 micromolar.

Experimental findings from patent US9249128B2 (priority 2010, dated 2016) are described below.

Where two headings read alike, the source gives them in different places. A value given as a limit tells only on which side of the number the result lay.

For the compound `O=C(NCCc1ccc(Cl)c(Cl)c1)Oc1ccc(-n2cccc2)cc1` [JW421, 4-(1H-pyrrol-1-yl)phenyl 3,4-dichlorophenethylcarbamate], the IC50 (commonly the concentration that inhibits the measured activity by half) under setting [1] is > 10000 nM. Still for that read-out and setting: the result for `Cc1ccc2ccccc2c1OC(=O)NCCc1ccc(C(F)(F)F)cc1` [JW447, 2-methylnaphthalen-1-yl 4-(trifluoromethyl)phenethylcarbamate] reads 858 nM; that for `CCOc1ccccc1OC(=O)NCc1ccc(OC(F)(F)F)cc1` [JW391, 2-ethoxyphenyl 4-(trifluoromethoxy)benzylcarbamate], 1050 nM. Consider `CC(C)c1ccccc1OC(=O)NCCc1ccc(C(F)(F)F)cc1` [JW482, 2-isopropylphenyl 4-(trifluoromethyl)phenethylcarbamate], for which the IC50 under setting [1] was determined as 9.4 nM and the IC50 under setting [2] was ~10 nM. On the same counts, the results for `CC(C)c1ccccc1OC(=O)NCCc1ccc2c(c1)OCO2` [JW481, 2-isopropylphenyl (2-(benzo[d][1,3]dioxol-5-yl)ethyl)carbamate] are 11.3 nM and ~10 nM. As for `O=C(NCCc1ccc(F)cc1)Oc1ccc(C2CCCCC2)cc1` [JW472, 4-cyclohexylphenyl 4-fluorophenethylcarbamate], the IC50 reads like this: under setting [1], 119 nM; under setting [3], < 1000 nM.

As to `CCOc1ccccc1OC(=O)NCc1ccc(C(F)(F)F)cc1` [JW387, 2-ethoxyphenyl 4-(trifluoromethyl)benzylcarbamate], the IC50 under setting [1] turned out to be 2820 nM. The same measure, in the same setting: the result for `CCOc1ccccc1OC(=O)NCCc1ccc(OC)cc1` [JW441, 2-ethoxyphenyl 4-methoxyphenethylcarbamate] reads > 10000 nM. Take `CCOc1ccccc1OC(=O)NCCc1ccc2c(c1)OCO2` [JW420, 2-ethoxyphenyl (2-(benzo[d][1,3]dioxol-5-yl)ethyl)carbamate]: under setting [1], the IC50 was 1340 nM. Still for that read-out and setting: the result for `Cc1ccc2ccccc2c1OC(=O)NCc1ccc(OC(F)(F)F)cc1` [JW390, 2-methylnaphthalen-1-yl 4-(trifluoromethoxy)benzylcarbamate] reads > 10000 nM; that for `COc1ccc(CCNC(=O)Oc2ccc(-n3cccc3)cc2)cc1` [JW431, 4-(1H-pyrrol-1-yl)phenyl 4-methoxyphenethylcarbamate], 1290 nM. As to `C=CCc1ccccc1OC(=O)NCCc1ccc(F)cc1` [JW468, 2-allylphenyl 4-fluorophenethylcarbamate], the IC50 under setting [1] turned out to be 94.3 nM. For `CCOc1ccccc1OC(=O)NCCc1cccs1`, under setting [1], the IC50 is > 10000 nM. `CCOc1ccccc1OC(=O)NCCc1ccc(Br)cc1` [JW418, 2-ethoxyphenyl 4-bromophenethylcarbamate]: the IC50 by setting is: under setting [1], 329 nM; under setting [3], < 1000 nM. In the case of `O=C(NCCc1ccc(C(F)(F)F)cc1)Oc1ccc(-n2cccc2)cc1` [JW446, 4-(1H-pyrrol-1-yl)phenyl 4-(trifluoromethyl)phenethylcarbamate], the IC50 under setting [1] was > 50000 nM. Consider `COc1cccc(CCNC(=O)Oc2c(C)ccc3ccccc23)c1` [JW437, 2-methylnaphthalen-1-yl 3-methoxyphenethylcarbamate], for which the IC50 reads like this: under setting [1], 209 nM; under setting [3], < 1000 nM.

For `O=C(NCCN1CCOCC1)Oc1ccc(-n2cccc2)cc1` [JW425, 4-(1H-pyrrol-1-yl)phenyl (2-morpholinoethyl)carbamate], the IC50 is > 50000 nM. With `Cc1ccc2ccccc2c1OC(=O)NCc1ccc(C(F)(F)F)cc1` [JW385, 2-methylnaphthalen-1-yl 4-(trifluoromethyl)benzylcarbamate], under setting [1], the IC50 was > 50000 nM. On the same count and under the same terms, to `CCCCc1ccc(CNC(=O)Oc2c(C)ccc3ccccc23)cc1` [JW406, 2-methylnaphthalen-1-yl 4-butylbenzylcarbamate] belongs > 50000 nM. As to `O=C(NCCc1ccc(F)cc1)Oc1ccc(-c2ccccc2)cc1` [JW473, [1,1′-biphenyl]-4-yl 4-fluorophenethylcarbamate], the concentration for half-maximal inhibition (IC50) runs as follows: under setting [1], 955 nM; under setting [3], < 1000 nM. Turning to `CCOc1ccccc1OC(=O)NCCc1cccc(OC)c1` [JW442, 2-ethoxyphenyl 3-methoxyphenethylcarbamate], the IC50 under setting [1] is 1010 nM. `Cc1ccc2ccccc2c1OC(=O)NCCc1cc2ccccc2[nH]1` [JW428, 2-methylnaphthalen-1-yl (2-(1H-indol-2-yl)ethyl)carbamate]: the IC50 under setting [1] was found to be 3940 nM.

`Cc1ccc2ccccc2c1OC(=O)NCCN1CCOCC1` [JW427, 2-methylnaphthalen-1-yl (2-morpholinoethyl)carbamate]: the IC50 is > 50000 nM. Consider `Cc1ccc2ccccc2c1OC(=O)NCCc1cccs1` [JW416, 2-methylnaphthalen-1-yl (2-(thiophen-2-yl)ethyl)carbamate], for which the IC50 under setting [1] is 3310 nM.

On to `COc1ccc(CNC(=O)Oc2c(C)ccc3ccccc23)cc1` [JW386, 2-methylnaphthalen-1-yl 4-methoxybenzylcarbamate], for which the IC50 under setting [1] was > 10000 nM. On to `CCOc1ccccc1OC(=O)NCc1ccc(Cl)cc1` [JW398, 2-ethoxyphenyl 4-chlorobenzylcarbamate], for which the IC50 reads like this: under setting [1], 977 nM; under setting [3], < 1000 nM. The like results for `Cc1ccc2ccccc2c1OC(=O)NCCc1ccc2c(c1)OCO2` [JW417, 2-methylnaphthalen-1-yl (2-(benzo[d][1,3]dioxol-5-yl)ethyl)carbamate] were, in that order, 142 nM and < 1000 nM. Take `CCOc1ccccc1OC(=O)NCc1ccc(-c2ccccc2)cc1`: the IC50 under setting [1] is > 50000 nM. Regarding `O=C(NCCc1ccc2c(c1)OCO2)Oc1ccc(-n2cccc2)cc1` [JW414, 4-(1H-pyrrol-1-yl)phenyl (2-(benzo[d][1,3]dioxol-5-yl)ethyl)carbamate], the IC50 under setting [1] is > 10000 nM. Regarding `Cc1ccc(C(C)C)c(OC(=O)NCCc2ccc(F)cc2)c1` [JW466, 2-isopropyl-5-methylphenyl 4-fluorophenethylcarbamate], the IC50 was 197 nM under setting [1] and < 1000 nM under setting [3]. As for `CCOc1ccccc1OC(=O)NCCc1ccc(Cl)c(Cl)c1` [JW423, 2-ethoxyphenyl 3,4-dichlorophenethylcarbamate], the IC50 was 498 nM under setting [1] and < 1000 nM under setting [3]. Regarding `O=C(NCCc1ccc2ccccc2c1)Oc1ccc(-n2cccc2)cc1` [JW435, 4-(1H-pyrrol-1-yl)phenyl (2-(naphthalen-2-yl)ethyl)carbamate], the IC50 under setting [1] is > 50000 nM. On the same count and under the same terms, to `COc1ccc(OC(=O)NCCc2ccc(F)cc2)c2ccccc12` [JW465, 4-methoxynaphthalen-1-yl 4-fluorophenethylcarbamate] belongs > 50000 nM; to `CCOc1ccccc1OC(=O)NCC(c1ccccc1)c1ccccc1` [JW444, 2-ethoxyphenyl (2,2-diphenylethyl)carbamate], 1050 nM; to `CCOc1ccccc1OC(=O)NCCC(c1ccccc1)c1ccccc1` [JW443, 2-ethoxyphenyl (3,3-diphenylpropyl)carbamate], 1830 nM. Still for that read-out and setting: the result for `O=C(NCCc1ccc(F)cc1)Oc1ccc(C2CCCC2)cc1` [JW474, 4-cyclopentylphenyl 4-fluorophenethylcarbamate] reads 795 nM. For the compound `COc1ccc(CNC(=O)Oc2ccc(-n3cccc3)cc2)cc1` [JW384, 4-(1H-pyrrol-1-yl)phenyl 4-methoxybenzylcarbamate], the IC50 is 668 nM under setting [1] and < 1000 nM under setting [3].

As for `COc1cccc(OC(=O)NCCc2ccc(F)cc2)c1OC` [JW477, 2,3-dimethoxyphenyl 4-fluorophenethylcarbamate], the IC50 under setting [1] is > 10000 nM. Still for that read-out and setting: the result for `CCCCc1ccc(CNC(=O)Oc2ccccc2OCC)cc1` [JW409, 2-ethoxyphenyl 4-butylbenzylcarbamate] reads > 50000 nM. The same measure, in the same setting: the result for `O=C(NCCC(c1ccccc1)c1ccccc1)Oc1ccc(-n2cccc2)cc1` [JW433, 4-(1H-pyrrol-1-yl)phenyl (3,3-diphenylpropyl)carbamate] reads > 50000 nM; that for `O=C(NCC(c1ccccc1)c1ccccc1)Oc1ccc(-n2cccc2)cc1` [JW434, 4-(1H-pyrrol-1-yl)phenyl (2,2-diphenylethyl)carbamate], > 50000 nM; that for `CN(C)c1cccc(OC(=O)NCCc2ccc(F)cc2)c1` [JW469, 3-(dimethylamino)phenyl 4-fluorophenethylcarbamate], 5160 nM. Still for that read-out and setting: the result for `COc1ccc(CCNC(=O)Oc2c(C)ccc3ccccc23)cc1` [JW436, 2-methylnaphthalen-1-yl 4-methoxyphenethylcarbamate] reads 3000 nM.
